Test results as given in patent US20070066580A1, “Novel aldosterone antagonists and uses thereof” (Recordati Ireland Limited, priority 2005, published 2007).

target: T1, GAL4 DBD-hMR LBD fusion protein (Homo sapiens, UniProt P08235); experiment: Cell-based luciferase assay, agonist mode (CV-1 cells); conditions: 10 μM of compound
T1 construct: expressed in transfected cells; host or cells: CV-1 cells (African green monkey kidney), transient co-transfection with pCMX-GAL4-based vector and Galp3TKLuc reporter
Text: GAL4 DBD-hMR LBD fusion protein expression vector: A pCMX-GAL4-based vector was used for the expression of a fusion protein composed of the amino acids 1-147 of the DNA binding domain of Saccharomyces cerevisiae GAL4 (GAL4 DBD) (SEQ ID NO: 16) and amino acid residues 729-984 of the ligand binding domain of human mineralocorticoid receptor (hMR LBD) (SEQ ID NO: 14). The expression vector contained an expression cassette of the nucleotide sequence for the GAL4 DBD (See SEQ ID NO: 19) ligated to nucleotides 2401 through 3168 of the human mineralocorticoid (hMR) receptor (SEQ ID NO: 13).
In vitro cell culture: CV-1 cells (African green monkey kidney cell line, ATCC accession number CCL-70) were maintained in culture in 90% DMEM medium supplemented by 9% FCS and 1% Penicillin-Streptomycin-L-Glutamine at 37° C. under 8.5% CO2.
These cells were transiently co-transfected with the GAL4 DBD-hMR LBD fusion protein expression vector and the Galp3TKLuc reporter gene vector using the FuGENE 6 Transfection Reagent (Roche) according to the manufacturer's instructions.
Agonist assay: As a positive control, aldosterone (Acros Organics, catalogue # 215360050) was used at a concentration of 100 nM. The negative control sample was 90% DMEM medium supplemented by 9% charcoal-treated FCS and 1% Penicillin-Streptomycin-L-Glutamine containing 0.2% DMSO plus 0.02% ethanol. Positive control, negative control, or 10 μM final concentration of test compound was added to the cells and incubated for 24 hours at 37° C. under 8.5% CO2 before the Luciferase substrate (Promega, catalogue number #E2620) was added. After an incubation period of 5 min at RT, luminescence signals were read on a microplate reader (Molecular Devices/LJL Biosystems). Negative and positive controls were defined as 0% and 100% agonism, respectively. The agonistic potency of test compounds is given in % and was normalized to the positive and negative controls.

T1 sequence (P08235 with tags, fused parts or gaps limits assumed): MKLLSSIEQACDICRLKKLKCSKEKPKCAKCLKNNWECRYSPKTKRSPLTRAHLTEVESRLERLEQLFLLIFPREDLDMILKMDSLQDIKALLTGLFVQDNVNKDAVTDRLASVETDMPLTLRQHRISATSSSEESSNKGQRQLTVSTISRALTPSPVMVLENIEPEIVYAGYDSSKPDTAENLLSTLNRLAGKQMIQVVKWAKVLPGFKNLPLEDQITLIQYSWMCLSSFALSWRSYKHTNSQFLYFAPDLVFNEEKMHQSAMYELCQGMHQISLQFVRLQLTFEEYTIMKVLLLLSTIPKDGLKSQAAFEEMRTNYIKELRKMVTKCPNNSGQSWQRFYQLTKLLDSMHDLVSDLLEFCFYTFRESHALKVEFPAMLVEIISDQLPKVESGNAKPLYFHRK

Compound	potency for activation of MR relative to aldosterone
C=CCC[C@@H]1CC2=CC(=O)CC[C@]2(C)C2=CC[C@@]3(C)C(CC[C@@]34CCC(=O)O4)C21 (some centres unmarked) [Example 8]	at least three orders of magnitude less potent than aldosterone
CCCS[C@@H]1CC2=CC(=O)CC[C@]2(C)[C@@]23O[C@@H]2C[C@@]2(C)C(CC[C@@]24CCC(=O)O4)C13 (some centres unmarked) [Example 12]	at least three orders of magnitude less potent than aldosterone
CO/N=C/[C@@H]1CC2=CC(=O)CC[C@]2(C)[C@@]23O[C@@H]2C[C@@]2(C)C(CC[C@@]24CCC(=O)O4)C13 (some centres unmarked) [Example 52]	at least three orders of magnitude less potent than aldosterone
CCC[C@@H]1CC2=CC(=O)CC[C@]2(C)[C@@]23O[C@@H]2C[C@@]2(C)C(CC[C@@]24CCC(=O)O4)C13 (some centres unmarked) [Example 10]	at least three orders of magnitude less potent than aldosterone
CO/N=C/[C@@H]1CC2=CC(=O)CC[C@]2(C)C2=CC[C@@]3(C)C(CC[C@@]34CCC(=O)O4)C21 (some centres unmarked) [Example 34]	at least three orders of magnitude less potent than aldosterone
CCC[C@@H]1CC2=CC(=O)CC[C@]2(C)C2=CC[C@@]3(C)C(C21)[C@@H]1C[C@@H]1[C@@]31CCC(=O)O1 (some centres unmarked) [Example 70]	at least three orders of magnitude less potent than aldosterone
CCC[C@@H]1CC2=CC(=O)CC[C@]2(C)[C@@]23O[C@@H]2C[C@@]2(C)C(C13)[C@@H]1C[C@@H]1[C@@]21CCC(=O)O1 (some centres unmarked) [Example 71]	at least three orders of magnitude less potent than aldosterone
C[C@@H]1CC2=CC(=O)CC[C@]2(C)C2=CC[C@@]3(C)C(CC[C@@]34CCC(=O)O4)C21 (some centres unmarked) [Example 26]	at least three orders of magnitude less potent than aldosterone
C[C@]12CCC(=O)C=C1CCC1C3CC[C@@]4(COC(=O)O4)[C@@]3(C)C[C@H]3O[C@@]132 (some centres unmarked) [Example 41]	at least three orders of magnitude less potent than aldosterone
C[C@]12CCC(=O)C=C1C[C@@H](SCC(F)(F)F)C1C2=CC[C@@]2(C)C1CC[C@@]21CCC(=O)O1 (some centres unmarked) [Example 18]	at least three orders of magnitude less potent than aldosterone
CCC[C@@H]1CC2=CC(=O)CC[C@]2(C)C2=CC[C@@]3(C)C(CC[C@@]34CCC(=O)O4)C21 (some centres unmarked) [Example 9]	at least three orders of magnitude less potent than aldosterone

target: T2, ligand binding domain of the human mineralocorticoid receptor (hMR LBD) (Homo sapiens, UniProt P08235); experiment: Mineralocorticoid receptor (MR) in vitro competitive binding assay, [3H]aldosterone displacement; conditions: IR^TOTAL = sum of IR^AR/MR, IR^ER/MR, IR^GR/MR, IR^PR/MR
T2 construct: made in house; host or cells: Sf9 insect cells (baculovirus, pFastBac)
T2 sequence (P08235 729-984): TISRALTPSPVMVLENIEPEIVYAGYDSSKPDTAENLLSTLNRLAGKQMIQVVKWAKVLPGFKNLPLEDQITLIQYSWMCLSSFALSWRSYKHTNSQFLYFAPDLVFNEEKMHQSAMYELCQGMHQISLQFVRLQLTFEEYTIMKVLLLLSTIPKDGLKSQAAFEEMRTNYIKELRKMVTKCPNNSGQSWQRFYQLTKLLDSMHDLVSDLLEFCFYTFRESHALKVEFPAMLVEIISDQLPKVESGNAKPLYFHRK
Protocol: Mineralocorticoid receptor (MR) binding assay: Spodoptera furgiperda (Sf9) insect cells (ATCC accession number CRL-1711) were maintained in culture in EX-CELL™ 420 serum free medium (JRH Biosciences, Inc.) at 27° C.
A recombinant baculovirus containing nucleotide sequences encoding the ligand binding domain of the human mineralocorticoid receptor (hMR) cloned into the pFastBac™ vector was generated using the Bac-to-Bac® Baculovirus Expression System Kit (Invitrogen) following the manufacturer's instructions. This recombinant baculovirus contains nucleotides 2401 through 3168 (SEQ ID NO: 13) of hMR, providing for expression of the ligand binding domain (LBD), amino acid residues 729-984 (SEQ ID NO: 14), of hMR (hMR LBD). Cultured Sf9 insect cells were transfected with this recombinant baculovirus following the manufacturer's instructions.
For the binding assay, a crude lysate of the hMR LBD-expressing insect cells was prepared. The crude lysate was diluted 12.5-fold with binding buffer (20 mM Tris-HCl pH 7.4, 1 mM EDTA, 1 mM dithiothreitol, 20 mM sodium tungstate, 50 mM KCl and 10% glycerol).
For the negative control sample, the diluted lysate was incubated with a 10 nM final concentration of the radioligand [1,2,6,7-^3H] aldosterone (Amersham Biosciences, catalogue # 434) for 3.5 h at 4° C. For test compounds and the positive control sample, the diluted lysate was incubated with various concentrations of test compound or with a 20 μM final concentration of spironolactone (Sigma, S-3378) as a reference compound for 45 min on ice, and was then incubated with a 10 nM final concentration of [1,2,6,7-^3H] aldosterone for 3.5 h at 4° C.
Using a CellHarvester (PerkinElmer, formerly Packard Biosciences), receptor/ligand complexes were retained on 96-well GF/B filters (PerkinElmer, formerly Packard Biosciences) while free radioligand passed through the filters. Scintillation counting of GF/B filter plates was performed using a TopCount NXT (PerkinElmer, formerly Packard Biosciences) to quantitate the amount of [1,2,6,7-^3H] aldosterone bound to the hMR LBD.
The IC50 of a test compound was determined from the concentration of test compound giving half-maximal displacement as obtained by nonlinear least-squares curve fitting to a one-site binding sigmoidal model using Prism 3.0 (Graph Pad Software, Inc., San Diego, US). The calculated IC50 values represent the average values calculated from the results of 1-3 experiments carried out in duplicate.
IC50 and inhibitory ratio calculations: To provide a measure of the potency of each test compound as an antagonist of MR, the IC50 of each test compound (IC50^Test) for ligand binding to MR and the IC50 of the known MR antagonists eplerenone (IC50^Ep) and spironolactone (IC50^Sp) for ligand binding to MR were used to calculate an IC50 ratio (RIC50) according to the following equations: RIC50^Ep/Test=IC50^Ep/IC50^Test and RIC50^Sp/Test=IC50^Sp/IC50^Test.
These individual inhibitory ratios were used to calculate a total inhibitory ratio (IR^TOTAL) according to the following equation: IR^TOTAL=IR^AR/MR+IR^ER/MR+IR^GR/MR+IR^PR/MR. B. Results and Discussion

Compound	IR^TOTAL compared with the IR^TOTAL for eplerenone	IR^TOTAL compared with the IR^TOTAL for spironolactone
CC(=O)S[C@@H]1CC2=CC(=O)CC[C@]2(C)C2=CC[C@@]3(C)C(CC[C@@]34CCC(=O)O4)C21 (some centres unmarked) [Example 11]	at least an order of magnitude greater than the IR^TOTAL for eplerenone	greater than the IR^TOTAL for spironolactone
CO/N=C/[C@@H]1CC2=CC(=O)CC[C@]2(C)[C@@]23O[C@@H]2C[C@@]2(C)C(CC[C@@]24CCC(=O)O4)C13 (some centres unmarked) [Example 52]	–	greater than the IR^TOTAL for spironolactone
C[C@]12CCC(=O)C=C1C[C@@H](C#N)C1C2=CC[C@@]2(C)C1[C@@H]1C[C@@H]1[C@@]21COC(=O)O1 (some centres unmarked) [Example 76]	at least an order of magnitude greater than the IR^TOTAL for eplerenone	at least an order of magnitude greater than the IR^TOTAL for spironolactone
C[C@]12CCC(=O)C=C1CCC1C2=CC[C@@]2(C)C1[C@@H]1C[C@@H]1[C@@]21COC(=O)O1 (some centres unmarked) [Example 75]	at least an order of magnitude greater than the IR^TOTAL for eplerenone	at least an order of magnitude greater than the IR^TOTAL for spironolactone
CC(=O)S[C@@H]1CC2=CC(=O)CC[C@]2(C)[C@@]23O[C@@H]2C[C@@]2(C)C(CC[C@@]24COC(=O)O4)C13 (some centres unmarked) [Example 46]	at least an order of magnitude greater than the IR^TOTAL for eplerenone	greater than the IR^TOTAL for spironolactone
CCC[C@@H]1CC2=CC(=O)CC[C@]2(C)C2=CC[C@@]3(C)C(C21)[C@@H]1C[C@@H]1[C@@]31CCC(=O)O1 (some centres unmarked) [Example 70]	at least an order of magnitude greater than the IR^TOTAL for eplerenone	at least an order of magnitude greater than the IR^TOTAL for spironolactone

target: T3, MR (Homo sapiens, UniProt P08235); experiment: not given; conditions: cited from earlier work
T3 sequence (P08235 1-984): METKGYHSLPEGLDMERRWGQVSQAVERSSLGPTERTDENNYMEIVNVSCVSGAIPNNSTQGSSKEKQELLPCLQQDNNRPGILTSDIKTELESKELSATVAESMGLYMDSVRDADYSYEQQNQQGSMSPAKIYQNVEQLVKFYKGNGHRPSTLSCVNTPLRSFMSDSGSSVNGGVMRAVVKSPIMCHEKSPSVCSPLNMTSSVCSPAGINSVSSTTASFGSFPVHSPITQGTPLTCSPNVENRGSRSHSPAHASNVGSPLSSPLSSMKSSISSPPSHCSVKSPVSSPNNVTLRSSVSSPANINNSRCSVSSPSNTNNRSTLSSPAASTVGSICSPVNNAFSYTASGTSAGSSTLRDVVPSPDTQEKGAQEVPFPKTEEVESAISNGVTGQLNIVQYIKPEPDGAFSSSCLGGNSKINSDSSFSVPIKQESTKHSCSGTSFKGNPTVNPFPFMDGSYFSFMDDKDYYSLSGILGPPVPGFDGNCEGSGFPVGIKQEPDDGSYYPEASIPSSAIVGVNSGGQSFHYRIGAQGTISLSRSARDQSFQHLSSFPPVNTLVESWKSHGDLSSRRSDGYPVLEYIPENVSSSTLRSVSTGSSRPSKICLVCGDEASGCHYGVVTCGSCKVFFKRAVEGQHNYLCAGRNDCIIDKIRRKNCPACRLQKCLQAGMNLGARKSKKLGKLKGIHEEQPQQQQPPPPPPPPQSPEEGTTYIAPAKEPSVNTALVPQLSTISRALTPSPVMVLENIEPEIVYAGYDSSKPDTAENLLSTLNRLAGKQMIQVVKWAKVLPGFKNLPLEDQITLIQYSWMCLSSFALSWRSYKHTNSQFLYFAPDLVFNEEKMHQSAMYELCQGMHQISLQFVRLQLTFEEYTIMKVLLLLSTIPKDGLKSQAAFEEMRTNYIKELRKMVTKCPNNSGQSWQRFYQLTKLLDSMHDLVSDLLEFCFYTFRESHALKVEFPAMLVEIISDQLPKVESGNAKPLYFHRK

Compound	antimineralocorticoid potency, times more potent than spironolactone
C[C@]12C=CC(=O)C=C1[C@@H]1C[C@@H]1[C@H]1[C@@H]3[C@@H]4C[C@@H]4[C@@]4(CCC(=O)O4)[C@@]3(C)CC[C@@H]12 [spirorenone]	approximately 7.5 times
